# ChEMBL document CHEMBL5360545, “Multitargeted drug design strategy for discovery of short-peptide-based HIV-1 entry inhibitors with high potency” (Eur J Med Chem, 2023)
# Side chains are listed from the residue outwards. Peptide text beside a SMILES is read from it. * marks the point of attachment. PEG24 = NCCOCCOCCOCCOCCOCCOCCOCCOCCOCCOCCOCCOCCOCCOCCOCCOCCOCCOCCOCCOCCOCCOCCOCCOCCC(=O)O; X3 = Cc1ccc(N(CCCN2CCN(Cc3ccc(F)cc3)CC2)C(=O)C2CCN(C(=O)COCC(=O)*)CC2)cc1Cl; X1 = CC(=O)N1CCC(C(=O)N(CCCN2CCC(Cc3ccc(C(=O)*)cc3)CC2)c2ccc(C)c(Cl)c2)CC1; PEG12 = NCCOCCOCCOCCOCCOCCOCCOCCOCCOCCOCCOCCOCCC(=O)O; PEG8 = NCCOCCOCCOCCOCCOCCOCCOCCOCCC(=O)O; PEG4 = NCCOCCOCCOCCOCCC(=O)O
# Test system: Human immunodeficiency virus 1
# Test: Antiviral activity against HIV-1 Bal-R5 infected in human CEMx174 5.25M7 cells assessed as reduction in p24 antigen level measured after 4 days by ELISA
# Assay type: functional, organism-based
# Details: Human immunodeficiency virus 1, Bal-R5, CEMx174 5.25M7, 96 h
row,EC50 [nM],SMILES
1,0.26,CC[C@H](C)[C@H](NC(C)=O)C(=O)N[C@@H](CCC(=O)O)C(=O)N[C@@H](CCC(=O)O)C(=O)N[C@@H](CC(C)C)C(=O)N[C@H](C(=O)N[C@@H](CCCNC(=N)N)C(=O)N[C@@H](C)C(=O)N[C@@H](C)C(=O)N[C@@H](CCC(N)=O)C(=O)N[C@@H](CCC(=O)O)C(=O)N[C@@H](CCC(N)=O)C(=O)N[C@@H](CCC(N)=O)C(=O)N[C@@H](CCCNC(=N)N)C(=O)N[C@@H](CCCCN)C(=O)N[C@@H](CC(N)=O)C(=O)N[C@@H](CCC(=O)O)C(=O)N[C@@H](CCC(=O)O)C(=O)N[C@@H](C)C(=O)N[C@@H](CC(C)C)C(=O)N[C@@H](CCCNC(=N)N)C(=O)N[C@@H](CCC(=O)O)C(=O)N[C@@H](CC(C)C)C(=O)N[C@@H](CCCCNC(=O)CCOCCOCCOCCOCCOCCOCCOCCOCCOCCOCCOCCOCCOCCOCCOCCOCCOCCOCCOCCOCCOCCOCCOCCOCCNC(=O)c1ccc(CC2CCN(CCCN(C(=O)C3CCN(C(C)=O)CC3)c3ccc(C)c(Cl)c3)CC2)cc1)C(N)=O)[C@@H](C)CC (Ac-IEELIRAAQEQQRKNEEALRELK([PEG24-X1])-NH2)
2,1.52,CC[C@H](C)[C@H](NC(=O)[C@H](CCCCN)NC(=O)[C@H](CCC(N)=O)NC(=O)[C@H](CCC(=O)O)NC(=O)[C@H](Cc1c[nH]c2ccccc12)NC(C)=O)C(=O)N[C@@H](CCC(=O)O)C(=O)N[C@@H](CCC(=O)O)C(=O)N[C@@H](CC(C)C)C(=O)N[C@@H](CC(C)C)C(=O)N[C@@H](CCCCN)C(=O)N[C@@H](CCCCN)C(=O)N[C@@H](C)C(=O)N[C@@H](CCC(=O)O)C(=O)N[C@@H](CCC(=O)O)C(=O)N[C@@H](CCC(N)=O)C(=O)N[C@@H](CCC(N)=O)C(=O)N[C@@H](CCCCN)C(=O)N[C@@H](CCCCN)C(=O)N[C@@H](CC(N)=O)C(=O)N[C@@H](CCC(=O)O)C(=O)N[C@@H](CCC(=O)O)C(=O)N[C@@H](CCC(=O)O)C(=O)N[C@@H](CC(C)C)C(=O)N[C@@H](CCCCN)C(=O)N[C@@H](CCCCN)C(=O)N[C@@H](CC(C)C)C(=O)N[C@@H](CCC(=O)O)C(=O)N[C@@H](CCCCN)C(=O)N[C@@H](CCCCNC(=O)CCOCCOCCOCCOCCOCCOCCOCCOCCNC(=O)c1ccc(CC2CCN(CCCN(C(=O)C3CCN(C(C)=O)CC3)c3ccc(C)c(Cl)c3)CC2)cc1)C(N)=O (Ac-WEQKIEELLKKAEEQQKKNEEELKKLEKK([PEG8-X1])-NH2)
3,0.12,CC[C@H](C)[C@H](NC(=O)[C@H](CCCCN)NC(=O)[C@H](CCC(N)=O)NC(=O)[C@H](CCC(=O)O)NC(=O)[C@H](Cc1c[nH]c2ccccc12)NC(C)=O)C(=O)N[C@@H](CCC(=O)O)C(=O)N[C@@H](CCC(=O)O)C(=O)N[C@@H](CC(C)C)C(=O)N[C@@H](CC(C)C)C(=O)N[C@@H](CCCCN)C(=O)N[C@@H](CCCCN)C(=O)N[C@@H](C)C(=O)N[C@@H](CCC(=O)O)C(=O)N[C@@H](CCC(=O)O)C(=O)N[C@@H](CCC(N)=O)C(=O)N[C@@H](CCC(N)=O)C(=O)N[C@@H](CCCCN)C(=O)N[C@@H](CCCCN)C(=O)N[C@@H](CC(N)=O)C(=O)N[C@@H](CCC(=O)O)C(=O)N[C@@H](CCC(=O)O)C(=O)N[C@@H](CCC(=O)O)C(=O)N[C@@H](CC(C)C)C(=O)N[C@@H](CCCCN)C(=O)N[C@@H](CCCCN)C(=O)N[C@@H](CC(C)C)C(=O)N[C@@H](CCC(=O)O)C(=O)N[C@@H](CCCCN)C(=O)N[C@@H](CCCCNC(=O)CCOCCOCCOCCOCCOCCOCCOCCOCCOCCOCCOCCOCCOCCOCCOCCOCCOCCOCCOCCOCCOCCOCCOCCOCCNC(=O)c1ccc(CC2CCN(CCCN(C(=O)C3CCN(C(C)=O)CC3)c3ccc(C)c(Cl)c3)CC2)cc1)C(N)=O (Ac-WEQKIEELLKKAEEQQKKNEEELKKLEKK([PEG24-X1])-NH2)
4,1.11,CC[C@H](C)[C@H](NC(=O)[C@H](CCCCN)NC(=O)[C@H](CCC(N)=O)NC(=O)[C@H](CCC(=O)O)NC(=O)[C@H](Cc1c[nH]c2ccccc12)NC(C)=O)C(=O)N[C@@H](CCC(=O)O)C(=O)N[C@@H](CCC(=O)O)C(=O)N[C@@H](CC(C)C)C(=O)N[C@@H](CC(C)C)C(=O)N[C@@H](CCCCN)C(=O)N[C@@H](CCCCN)C(=O)N[C@@H](C)C(=O)N[C@@H](CCC(=O)O)C(=O)N[C@@H](CCC(=O)O)C(=O)N[C@@H](CCC(N)=O)C(=O)N[C@@H](CCC(N)=O)C(=O)N[C@@H](CCCCN)C(=O)N[C@@H](CCCCN)C(=O)N[C@@H](CC(N)=O)C(=O)N[C@@H](CCC(=O)O)C(=O)N[C@@H](CCC(=O)O)C(=O)N[C@@H](CCC(=O)O)C(=O)N[C@@H](CC(C)C)C(=O)N[C@@H](CCCCN)C(=O)N[C@@H](CCCCN)C(=O)N[C@@H](CC(C)C)C(=O)N[C@@H](CCC(=O)O)C(=O)N[C@@H](CCCCN)C(=O)N[C@@H](CCCCNC(=O)CCOCCOCCOCCOCCNC(=O)c1ccc(CC2CCN(CCCN(C(=O)C3CCN(C(C)=O)CC3)c3ccc(C)c(Cl)c3)CC2)cc1)C(N)=O (Ac-WEQKIEELLKKAEEQQKKNEEELKKLEKK([PEG4-X1])-NH2)
5,6.26,CC[C@H](C)[C@H](NC(C)=O)C(=O)N[C@@H](CCC(=O)O)C(=O)N[C@@H](CCC(=O)O)C(=O)N[C@@H](CC(C)C)C(=O)N[C@H](C(=O)N[C@@H](CCCNC(=N)N)C(=O)N[C@@H](C)C(=O)N[C@@H](C)C(=O)N[C@@H](CCC(N)=O)C(=O)N[C@@H](CCC(=O)O)C(=O)N[C@@H](CCC(N)=O)C(=O)N[C@@H](CCC(N)=O)C(=O)N[C@@H](CCCNC(=N)N)C(=O)N[C@@H](CCCCN)C(=O)N[C@@H](CC(N)=O)C(=O)N[C@@H](CCC(=O)O)C(=O)N[C@@H](CCC(=O)O)C(=O)N[C@@H](C)C(=O)N[C@@H](CC(C)C)C(=O)N[C@@H](CCCNC(=N)N)C(=O)N[C@@H](CCC(=O)O)C(=O)N[C@@H](CC(C)C)C(=O)N[C@@H](CCCCNC(=O)CCOCCOCCOCCOCCOCCOCCOCCOCCOCCOCCOCCOCCNC(=O)COCC(=O)N1CCC(C(=O)N(CCCN2CCN(Cc3ccc(F)cc3)CC2)c2ccc(C)c(Cl)c2)CC1)C(N)=O)[C@@H](C)CC (Ac-IEELIRAAQEQQRKNEEALRELK([PEG12-X3])-NH2)
